Data taken from article PMC4321733 (Bioorganic & medicinal chemistry letters, 2014).

These compounds were tested against PDE10A (Homo sapiens, UniProt Q9Y233) (assay: scintillation proximity assay). Conditions: ratio of IC50 values.
PDE10A, sequence (Q9Y233 whole entry): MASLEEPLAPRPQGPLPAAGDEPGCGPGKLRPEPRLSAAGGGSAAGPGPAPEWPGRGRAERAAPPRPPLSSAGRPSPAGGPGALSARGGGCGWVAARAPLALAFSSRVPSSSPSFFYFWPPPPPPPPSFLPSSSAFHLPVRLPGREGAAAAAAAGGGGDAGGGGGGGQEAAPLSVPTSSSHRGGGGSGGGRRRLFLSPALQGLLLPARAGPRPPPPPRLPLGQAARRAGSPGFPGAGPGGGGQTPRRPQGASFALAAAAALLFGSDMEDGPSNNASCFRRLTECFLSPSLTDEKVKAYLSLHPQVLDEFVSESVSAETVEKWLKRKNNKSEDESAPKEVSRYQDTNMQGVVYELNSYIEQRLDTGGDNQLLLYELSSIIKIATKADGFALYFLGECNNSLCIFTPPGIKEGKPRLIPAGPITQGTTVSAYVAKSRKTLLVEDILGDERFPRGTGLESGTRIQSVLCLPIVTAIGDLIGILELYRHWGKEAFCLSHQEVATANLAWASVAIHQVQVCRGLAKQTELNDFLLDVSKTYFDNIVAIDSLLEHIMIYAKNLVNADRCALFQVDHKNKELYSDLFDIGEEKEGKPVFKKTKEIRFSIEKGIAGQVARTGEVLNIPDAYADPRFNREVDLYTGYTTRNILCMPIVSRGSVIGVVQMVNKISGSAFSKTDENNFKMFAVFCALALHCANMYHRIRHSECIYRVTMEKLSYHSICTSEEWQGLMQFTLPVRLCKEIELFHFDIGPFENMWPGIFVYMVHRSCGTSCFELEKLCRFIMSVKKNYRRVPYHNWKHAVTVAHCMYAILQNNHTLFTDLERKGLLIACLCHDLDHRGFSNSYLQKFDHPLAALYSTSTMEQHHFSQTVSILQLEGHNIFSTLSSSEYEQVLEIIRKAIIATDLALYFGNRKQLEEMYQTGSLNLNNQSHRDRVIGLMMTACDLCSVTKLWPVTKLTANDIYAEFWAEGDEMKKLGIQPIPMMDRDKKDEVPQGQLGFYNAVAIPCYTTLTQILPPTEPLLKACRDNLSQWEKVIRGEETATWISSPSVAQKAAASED

In vitro selectivity for PDE10A over PDE3A/3B, PDE4A/4B, > 1,000 fold:
COc1cc2nncc(-c3cnc(N4CCC(O)(c5cccnc5)CC4)c(C)c3)c2cc1OC [Compound 26a]
COc1cc2nncc(-c3cnc(N4CCC(O)(c5ccc(F)nc5)CC4)c(C)c3)c2cc1OC [Compound 26b]
Cn1c(C(=O)c2ccc(Oc3ncccc3-c3cccnc3)cc2)nc2ccccc21 [Compound 33c]
